Measurements from the SangsterLogP compilation.

Row | Compound | logP
1 | O=C(NC(CO)C(O)c1ccc([N+](=O)[O-])cc1)C(Br)(Br)Br (configuration not stated) | 2.17
2 | C#CC | 0.94
3 | O=[N+]([O-])c1cc[n+]([O-])c2ccccc12 | 1.09
4 | NC(=O)C(c1ccccc1)c1ccccn1 (configuration not stated) | 0.83
5 | O=C(O)Cc1ccc(Cl)cc1 | 2.12
6 | CC(C)(C)CO | 1.31
7 | Nc1ncnc2[nH]cnc12 | -0.09
8 | NS(=O)(=O)c1ccc(Cl)cc1 | 1.15
9 | COc1cccc(/C=C/[N+](=O)[O-])c1 | 2.37
10 | COc1ccccc1C(=O)O | 1.59
11 | CCCCCn1nnc2ccccc21 | 3.22
12 | CCOCCO | -0.32
13 | CCOC(=O)C(C#N)=NNc1cc(Cl)c(Cl)cc1Cl | 5.21
14 | Oc1ccc2ccccc2c1 | 2.7
15 | O=C1O[C@H]([C@@H](O)CO)C(O)=C1O | -1.85
16 | CCC(C)c1ccccc1OC(=O)NC (configuration not stated) | 2.78
17 | Cc1ncc(CO)c(CN)c1O | -1.3
18 | CCC(C)n1nnc2ccccc21 (configuration not stated) | 2.31
19 | O=[N+]([O-])/C=C/c1ccoc1 | 1.41
20 | OCC1OC(n2cnc3c(S)ncnc32)C(O)C1O (configuration not stated) | -0.6
21 | Cc1cccc(C)c1O | 2.36
22 | CCC#N | 0.16
23 | CSc1nnc(CCC(C)C)c(=O)n1N | 1.85
24 | O=[N+]([O-])c1cc2ccccc2[n+]([O-])c1 | 0.56

Row | Compound | logP
25 | CCCNCCC | 1.67
26 | CC(=O)C(C#N)=NNc1cc(C(F)(F)F)ccc1Cl | 5.08
27 | O=[N+]([O-])c1cccc2c1ccc[n+]2[O-] | 0.49
28 | CCC1(CCC(C)C)C(=O)NC(=O)NC1=O | 2.07
29 | CCN1CCCC1CNC(=O)c1cc(S(=O)(=O)CC)ccc1OC (configuration not stated) | 1.06
30 | CC1(C)SC2C(NC(=O)C(N)c3ccc(O)cc3)C(=O)N2C1C(=O)O (configuration not stated) | 0.87
31 | [O-][n+]1ccc(Cl)c2ccccc21 | 1.08
32 | O=C1CCCO1 | -0.64
33 | CNC(=O)Oc1ccccc1I | 1.94
34 | O=C(O)COC1Cc2ccccc2C1 | 2.33
35 | CCOC(=O)C(C#N)=NNc1ccc(Cl)c(Cl)c1 | 4.66
36 | NC(=O)c1ccc(N)nc1 | 0.7
37 | c1ccc2c(c1)Nc1ccccc1S2 | 4.15
38 | CC(=O)C=Cc1ccccc1 | 2.07
39 | Cc1cnc(NS(=O)(=O)c2ccc(N)cc2)nc1 | 0.34
40 | CSc1ccccc1 | 2.74
41 | CC[C@H](C)[C@H](N)C(=O)O | -1.7
42 | CCCCCOC(N)=O | 1.35
43 | CCCCCCCC(C)=O | 3.14
44 | CCOC1(c2ccccc2)OCCN(C)C1C (configuration not stated) | 2.27
45 | NCCc1ccccc1 | 1.41
46 | CCC1(CC)C(=O)NC(=S)NC1=O | 1.5
47 | O=C1c2ccccc2C(=O)C1c1ccccc1 | 2.9
48 | O=C(O)C(c1ccccc1)c1ccccc1 | 3.09

Row | Compound | logP
49 | O=c1[nH]cc(F)c(=O)[nH]1 | -0.89
50 | CNC(=O)Oc1cc(C)cc(C)c1 | 2.23
51 | Nc1nc2c(ncn2[C@H]2C[C@H](O)[C@@H](CO)O2)c(=S)[nH]1 | -0.79
52 | O=C(O)Cc1ccc(F)cc1 | 1.55
53 | CCCCNCCCC | 2.83
54 | OCCN1CCN(CC/C=C2\c3ccccc3Sc3ccc(C(F)(F)F)cc32)CC1 | 4.51
55 | CSCC[C@H](N)C(=O)O | -1.87
56 | CC(C)=O | -0.24
57 | NC(=O)NO | -1.8
58 | Cc1ccc(Cl)cc1 | 3.33
59 | CC(O)Cn1cnc2c1c(=O)n(C)c(=O)n2C (configuration not stated) | -0.77
60 | Nc1ccc2ccccc2c1 | 2.28
61 | CNC(=O)c1ccccc1 | 0.86
62 | Clc1cccc(Cl)c1 | 3.53
63 | Cc1cccc(OCCN(C)C)c1 | 2.05
64 | O=C(O)c1cccc(F)c1 | 2.15
65 | Cn1c([N+](=O)[O-])cnc1COC(N)=O | -0.38
66 | CCN | -0.13
67 | Cc1cn([C@H]2C[C@H](O)[C@@H](CO)O2)c(=O)[nH]c1=S | -0.07
68 | CC(C)C(=O)C(C#N)=NNc1cc(C(F)(F)F)ccc1Cl | 5.31
69 | FC(F)(F)c1nc2cc(Cl)c(Cl)cc2[nH]1 | 3.49
70 | CN1CC[C@]23c4c5ccc(O)c4O[C@H]2C(=O)CC[C@@]3(O)[C@H]1C5 | 0.83
71 | CC(C)(C)NCC(O)COc1nsnc1N1CCOCC1 (configuration not stated) | 1.83
72 | Nc1ccc(S(=O)(=O)Nc2ncccn2)cc1 | -0.09

Row | Compound | logP
73 | CC(C)NCC(O)c1ccc(NS(C)(=O)=O)cc1 (configuration not stated) | 0.24
74 | CCCNCC(C)C | 2.07
75 | CC1=C(C(=O)Nc2ccccc2)SCCO1 | 2.14
76 | CCCCCC1Nc2cc(C(F)(F)F)c(S(N)(=O)=O)cc2S(=O)(=O)N1 (configuration not stated) | 2.66
77 | O=C(O)COc1ccc(Cl)cc1Cl | 2.81
78 | Brc1cnc2ccccc2c1 | 3.03
79 | Nc1ccccc1O | 0.62
80 | Oc1c(Br)cc(Br)cc1Br | 4.13
81 | COC(=O)C(C#N)=NNc1ccccc1C(F)(F)F | 3.7
82 | COc1ccc(N)cc1 | 0.95
83 | N#C/C(=C\c1ccccc1)C(N)=O | 1.56
84 | CCOC(=O)Cc1ccccc1 | 2.28
85 | NC(=O)C1(N2CCCCC2)CCN(CCCC(=O)c2ccc(F)cc2)CC1 | 2.02
86 | Clc1ccccn1 | 1.22
87 | Cn1c(CO)cnc1[N+](=O)[O-] | -0.03
88 | CCc1cccc(OC(=O)NC)c1 | 2.2
89 | O=[N+]([O-])c1ccc(Cl)cc1 | 2.39
90 | C=CCN1CC[C@]23c4c5ccc(O)c4O[C@H]2[C@@H](O)C=C[C@H]3[C@H]1C5 | 1.86
91 | Cc1cc(C)c(C)cc1C | 4
92 | C[C@]12CCC(=O)C=C1CC[C@@H]1[C@@H]2[C@@H](O)C[C@]2(C=O)[C@@H](C(=O)CO)CC[C@@H]12 | 1.08
93 | Cc1cc(N)c(C)c(O)c1C(=O)O | 3.38
94 | Cc1ccc(O)c(C)c1 | 2.3
95 | O=C(Nc1ccccc1)c1ccccc1O | 3.27
96 | Cn1cccc1 | 1.21

Row | Compound | logP
97 | COP(=O)(OC)OC=C(Cl)Cl | 1.47
98 | N#Cc1cccc(OCC(=O)O)c1 | 0.95
99 | Clc1cccc2cccnc12 | 2.44
100 | CC(=O)c1ccc(Br)cc1 | 2.43
101 | COc1ccc(OC)c(CC(C)N)c1 (configuration not stated) | 1.72
102 | COc1ccc(O)cc1 | 1.58
103 | Cc1c[nH]c(=O)[nH]c1=O | -0.62
104 | Nc1ccncc1 | 0.26
105 | O=C(O)COc1ccccc1I | 2.33
106 | Cc1c(Cl)cccc1Nc1ccccc1C(=O)O | 5.17
107 | CCCCN(CCCC)N=O | 2.63
108 | O=[N+]([O-])c1cc[n+]([O-])c2c([N+](=O)[O-])cccc12 | 0.76
109 | NS(=O)(=O)c1ccc(Cl)c(Cl)c1 | 1.44
110 | CC1(C)S[C@@H]2[C@H](NC(=O)COc3ccccc3)C(=O)N2[C@H]1C(=O)O | 2.09
111 | O=C(O)c1ccccc1Nc1ccccc1 | 4.36
112 | O=[N+]([O-])c1ccc2ccc[n+]([O-])c2c1 | 0.36
113 | CC(=O)c1ccc(N)cc1 | 0.83
114 | NS(=O)(=O)c1ccccc1[N+](=O)[O-] | 0.34
115 | Oc1ccc(Br)cc1Br | 3.22
116 | COC1=CC(=O)C[C@@H](C)[C@]12Oc1c(Cl)c(OC)cc(OC)c1C2=O | 2.18
117 | CSc1nnc(-c2ccccc2)c(=O)n1N | 1.66
118 | Cc1cn([C@H]2C[C@H](F)[C@@H](CO)O2)c(=O)[nH]c1=O | -0.28
119 | C[C@]12C[C@H](O)[C@H]3[C@@H](CCC4=CC(=O)CC[C@@]43C)[C@@H]1CC[C@@H]2C(=O)CO | 1.94
120 | O=C(O)CCCCn1nnc2ccccc21 | 0.48

Row | Compound | logP
121 | O=C1C=C(Cl)C(=O)c2ccccc21 | 2.29
122 | CN(C)CCCN1c2ccccc2Sc2ccccc21 | 4.55
123 | c1ccc(-c2ccccc2)cc1 | 3.98
124 | C#C[C@]1(O)CC[C@H]2[C@@H]3CCc4cc(O)ccc4[C@H]3CC[C@@]21C | 3.67
125 | Nc1ncnc2c1ncn2[C@H]1C=C[C@@H](CO)O1 | -0.5
126 | COc1cccc(N)c1 | 0.93
127 | CCCN(CC)CCC | 2.68
128 | Nc1ccc(Oc2ccccc2)cc1 | 2.96
129 | c1cnc2c(c1)ccc1ncccc12 | 2.51
130 | NC(=O)N(CCCl)N=O | 0.57
131 | NC(=O)c1cc([N+](=O)[O-])cc([N+](=O)[O-])c1 | 0.83
132 | Cc1ccc(CC(=O)O)cc1 | 1.86
133 | Nc1ccccc1 | 0.9
134 | O=c1ccn([C@@H]2O[C@H](CO)[C@@H](O)[C@H]2O)c(=O)[nH]1 | -1.98
135 | Cc1cc(C(=O)NN)ccn1 | -0.37
136 | O=[N+]([O-])c1cc(Cl)c(O)c(Cl)c1 | 2.94
137 | CC(C)(C)NC[C@H](O)COc1ccccc1C1CCCC1 | 4.15
138 | CC(=O)c1ccc([N+](=O)[O-])cc1 | 1.53
139 | N#Cc1cccc([N+](=O)[O-])c1 | 1.17
140 | COC(=O)C(C#N)=NNc1cccc(Cl)c1 | 3.6
141 | O=C(O)COc1ccc(F)cc1 | 1.64
142 | COC(=O)C(C#N)=NNc1c(Cl)cc(C(F)(F)F)cc1Cl | 4.36
143 | N#Cc1ccc(OCC(=O)O)cc1 | 0.93
144 | c1ccc(-c2cccc(-c3ccccc3)n2)cc1 | 4.82

Row | Compound | logP
145 | CC/C(=C/c1ccccc1)[N+](=O)[O-] | 2.86
146 | OCc1ccncc1 | 0.06
147 | CNC(=O)Oc1ccc(I)cc1 | 2.46
148 | CN(C)C(=O)c1ccccc1 | 0.62
149 | O=[N+]([O-])c1cccc(Cl)c1 | 2.46
150 | Nc1ccc(Cl)cc1 | 1.83
151 | Clc1ccccc1 | 2.84
152 | CCc1cccc2ccccc12 | 4.4
153 | NCCc1cccnc1 | -0.11
154 | Nc1ccc(-c2ccc(N)cc2)cc1 | 1.34
155 | O=C1OC(=O)c2ccccc21 | 1.6
156 | C1CNCCN1 | -1.5
157 | O=C(O)c1ccccc1I | 2.4
158 | Cc1cn([C@H]2CC[C@@H](CO)O2)c(=O)[nH]c1=O | -0.6
159 | Cc1cccc(S(N)(=O)=O)c1 | 0.85
160 | COc1ccc2c(c1)N(CCCN(C)C)c1ccccc1S2 | 4.9
161 | NC(=O)c1ccc(Cl)cc1 | 1.55
162 | Oc1cccc(C(F)(F)F)c1 | 2.95
163 | Nc1ncnc2c1ncn2[C@H]1C[C@H](F)[C@@H](CO)O1 | 0.08
164 | CCOC(=O)C1(c2ccccc2)CCN(C)CC1 | 2.72
165 | c1cncnc1 | -0.4
166 | O=Nc1ccc2ccccc2c1O | 2.46
167 | OCCN1CCN(CCCN2c3ccccc3Sc3ccc(C(F)(F)F)cc32)CC1 | 4.36
